The text below walks through data of patent US11541084B2, “Method of promoting bone regrowth” (GENMONT BIOTECH INC., priority 2017, dated 2023).

Common to all, as to assay type: in vivo, mice (ICR female)
In assay [1] the test system is ovariectomized (OVX) mice. Description: Bone tissue analysis by micro computed tomography of the femur in the osteoporosis mouse model. Conditions: right femur, tube feed for 28 days, mean ±SD. On the procedure: Experiment 1: Bone tissue analysis
(1) preparation of viable bacteria: Inoculating the Lactobacillus plantarum GMNL-662 from a frozen tube to 1 ml of MRS broth, and standing under 37° C. for aerobically incubating for 20 hours. The next day, adding 15 μl culture solution into 1.5 ml of MRS broth (1% secondary activation), and then standing under 37° C. for aerobically incubating for 20 hours. Estimating the bacteria number by using OD 600 to adjust the bacteria concentration to 8×10^7 CFU/ml.
(2) preparation of dead bacteria: Inoculating the Lactobacillus Plantarum strain GMNL-662 from a frozen tube to 1 ml of MRS broth, and standing under 37° C. for aerobically incubating for 20 hours. The next day, adding 15 μl culture solution into 1.5 ml of MRS broth (1% secondary activation), and then standing under 37° C. for aerobically incubating for 20 hours. Estimating the bacteria number by using OD 600 to adjust the bacteria concentration to 4.1×10^8 CFU/ml.
8-week-old ICR female […] were purchased from BioLASCO Taiwan and ovariectomy was performed when they were 9 week-old. Mice were underwent anesthesia and were ovariectomized through back on both sides of the ovaries. All groups were given the test substance by means of tube feed at 4 days after surgery. The groups were divided into a sham operation group (control group, their abdominal cavity were cut but their ovaries were not removed); and 4 groups ovariectomized group (Ovariectomy; OVX). When the mice were sacrificed, the ovarian tissues were checked and confirmed whether the removal of ovarian was successful. The experimental results of the mice under failure operation were not used. […] The mice were given 0.1 ml per 10 grams of body weight and 4 times a week. The remaining two groups were fed with 0.2 ml of alive GMNL-662 (strain concentration is 8×10^7 cfu/ml; daily dose of the mouse is 1.6×10^7 cfu/mouse, the human dose is 4×10^9 cfu/60 kg adult), and 0.2 ml of dead GMNL-662 (strain concentration is 4.1×10^8 cfu/ml; daily dose of the mouse is 8.2×10^7 cells/mouse, the human dose is 2×10^10 cells/60 kg adult). The two groups were fed with tube one time every day, continued for 28 days, the mice were anesthetized and sacrificed for intraperitoneal cephalic vein sampling, and each femur was removed for analysis.
The backbone of the right femur far from the end was taken a computer tomography by a micro computed tomography (SkyScan 1076, Kontizh, Belgium, with resolution of 18 μm), and the trabecular bone volume ratio (i.e. bone volume/tissue volume) is analyzed by a software. The analyzed position was selected to include the area of 100 pieces under the growth plate excluding cortical bone. The bone mineral density analysis was applied to the same area. The obtained data in the experiments were analyzed with two-way analysis of variance, and executed T-test statistical analysis. All data were presented as mean ±SD. After comparisons, the abovementioned groups were analyzed statistically and noted by different marks to represent the statistically significant differences (* represents p<0.05; ** represents p<0.01).

A further assay relates to osteocalcin gene. Description: Real-time PCR of bone cDNA from OVX mice: osteocalcin expression. Conditions: bone RNA of OVX mice after 28 days of tube feed; compared with disease group (OVX+H2O). On the procedure: (§1) 8-week-old ICR female rats were purchased from BioLASCO Taiwan and ovariectomy was performed when they were 9 week-old. Mice were underwent anesthesia and were ovariectomized through back on both sides of the ovaries. All groups were given the test substance by means of tube feed at 4 days after surgery. The groups were divided into a sham operation group (control group, their abdominal cavity were cut but their ovaries were not removed); and 4 groups ovariectomized group (Ovariectomy; OVX). When the mice were sacrificed, the ovarian tissues were checked and confirmed whether the removal of ovarian was successful. The experimental results of the mice under failure operation were not used. […]
(§2) Extraction of tibial RNA: The left femur of the mice were removed, cut into small pieces with scissor, and an appropriate amount of liquid nitrogen was added to grind the bones quickly. […] The solution was placed at room temperature to react for 5 minutes, followed by centrifugalized and extracted the upper layer to new microcentrifuge tubes (eppendorf); 0.25 ml isopropanol was added thereto and the solution was placed at room temperature for 10 minutes and then centrifugalized; the supernatant was removed and the precipitate was washed with 0.5 ml 75% ethanol; after the precipitate was dried, 20-50 μl DEPC water was added to dissolve the precipitate and the RNA concentration was measured. […]
(Quantitative PCR measures a nucleic acid by following its amplification.)

For a further assay, the system named is cytokine TGF-β. Description: Real-time PCR of bone cDNA from OVX mice: TGF-β expression. The note with it: bone RNA of OVX mice after 28 days of tube feed; compared with disease group (OVX+H2O). On the procedure:
as §1, §2

In assay [2] the test system is osteoclast related gene TRAP-5. Description: Real-time PCR of bone cDNA from OVX mice: TRAP-5 expression. The note with it: bone RNA of OVX mice after 28 days of tube feed; compared with disease group (OVX+H2O). The procedure:
as §1, §2

[3] abbreviates: * p<0.05, ** p<0.01, disease group OVX+H2O 0.344 ± 0.04, sham control 0.502 ± 0.04.
[4] abbreviates: * p<0.05, ** p<0.01, disease group OVX+H2O 30.9 ± 1.1, sham control 42.12 ± 2.4.

Turning to “Lactobacillus plantarum strain GMNL-662 [GMNL-662 alive]”, the “Femur bone mineral density (BMD, excluding cortical bone)” value is reported as 0.488 ± 0.02** g/cm^3 in assay [1] (setting [3]) and “significantly higher” in assay [1] (* p<0.05, ** p<0.01, disease group OVX+H2O 0.344 ± 0.04, sham control 0.502 ± 0.04, listed as alive GMNL-662). For the same substance, the “Trabecular bone volume ratio (BV/TV, bone volume/tissue volume)” value in assay [1] (setting [4]) is recorded as 36.92 ± 1.7** %; in assay [1] (* p<0.05, ** p<0.01, disease group OVX+H2O 30.9 ± 1.1, sham control 42.12 ± 2.4, listed as alive GMNL-662), “higher than the disease group”. For the same substance, in the assay with osteocalcin gene, the “expression of osteocalcin gene, FIG. 2” value is “higher than the disease group”. In the assay with cytokine TGF-β, the “expression of cytokine TGF-β (relative to GAPDH), FIG. 1” value is “significant increased expression”. In assay [2], the “expression of osteoclast related gene TRAP-5, FIG. 3” value is given as “significantly lower”.

On to “Lactobacillus plantarum strain GMNL-662 [GMNL-662 dead]”, for which the “Femur bone mineral density (BMD, excluding cortical bone)” value in assay [1] (setting [3]) is 0.474 ± 0.01** g/cm^3; in assay [1] (* p<0.05, ** p<0.01, disease group OVX+H2O 0.344 ± 0.04, sham control 0.502 ± 0.04, listed as dead GMNL-662) it was “significantly higher”. Moreover, the “Trabecular bone volume ratio (BV/TV, bone volume/tissue volume)” value was 36.8 ± 1.2** % in assay [1] (setting [4]) and “higher than the disease group” in assay [1] (* p<0.05, ** p<0.01, disease group OVX+H2O 30.9 ± 1.1, sham control 42.12 ± 2.4, listed as dead GMNL-662). In the assay with osteocalcin gene, the “expression of osteocalcin gene, FIG. 2” value is recorded as “higher than the disease group”. Further, the “expression of cytokine TGF-β (relative to GAPDH), FIG. 1” value in the assay with cytokine TGF-β is recorded as “significant increased expression”. Moreover, the “expression of osteoclast related gene TRAP-5, FIG. 3” value in assay [2] is given as “significantly lower”.
